Experimental data reported in patent publication US20240132484A1, “BROAD SPECTRUM ANTIVIRAL COMPOUNDS TARGETING THE SKI COMPLEX” (priority 2020, published 2024).
Several values for one entry are separate records, joined by “and”; a condition that tells them apart may be missing. Equal values may be shown once. Read-outs that look alike come from different tables or passages of the source.

Legend:
[1] = system: SARS2; assay type: cell-based, SARS-CoV-2; details: for Percentage Inhibition Average 1 μM / Screening data (Relative infection to DMSO controls) Average 1 μM: SARS2, 1 μM; for Screening data (Relative infection to DMSO controls) Average 1 μM / Screening data (Relative infection to DMSO controls) Average 5 μM / Screening data (Relative infection to DMSO controls) Average 10 μM / Screening data (Relative infection to DMSO controls) Average 25 μM / Screening data (Relative infection to DMSO controls) Average 50 μM / Average (relative infection to DMSO over the 5 tested concentrations): 100=DMSO control; for Percentage Inhibition Average 5 μM / Screening data (Relative infection to DMSO controls) Average 5 μM: SARS2, 5 μM; for Percentage Inhibition Average 10 μM / Screening data (Relative infection to DMSO controls) Average 10 μM: SARS2, 10 μM; for Percentage Inhibition Average 25 μM / Screening data (Relative infection to DMSO controls) Average 25 μM: SARS2, 25 μM; for Percentage Inhibition Average 50 μM / Screening data (Relative infection to DMSO controls) Average 50 μM: SARS2, 50 μM; for Average (relative infection to DMSO over the 5 tested concentrations): SARS2, average over 1 to 50 uM; for Percentage Infection Relative to Appropriate DMSO Control with Avg Background Subtraction: single well
[2] = system: cells (nuclei count); details: for Toxicity Data: Average, Mean: average of Exp 1-3 (SMW454, SMW466, SMW480), n 9; for Relative cell count to DMSO controls, Average 1 μM / Relative cell count to DMSO controls, Average 5 μM / Relative cell count to DMSO controls, Average 10 μM / Relative cell count to DMSO controls, Average 25 μM / Relative cell count to DMSO controls, Average 50 μM: toxicity data, 100=DMSO control; for Relative cell count to DMSO controls, Average (for correlation analysis): average value over the 5 tested concentrations (1 to 50 uM)

For Cc1ccc(CN(CCN(C)C)Cc2ccc(CO)o2)s1 [SILCS13], the “Percentage Infection Relative to DMSO Control, Average, Mean” value [1] was 85.64% and 142.17% and 120.89% and 97.87% and 94.70%, the “Percentage Inhibition Average 1 μM” value [1] was 5.30% and the “Screening data (Relative infection to DMSO controls) Average 1 μM” value [1] was 94.70. For the same compound, the “Percentage Inhibition Average 5 μM” value [1] was 2.13%, the “Screening data (Relative infection to DMSO controls) Average 5 μM” value [1] was 97.87 and the “Percentage Inhibition Average 10 μM” value [1] was −20.89%. For the same compound, the “Screening data (Relative infection to DMSO controls) Average 10 μM” value [1] was 120.89, the “Percentage Inhibition Average 25 μM” value [1] was −42.17% and the “Screening data (Relative infection to DMSO controls) Average 25 μM” value [1] was 142.17. The “Percentage Inhibition Average 50 μM” value [1] was 14.36%, the “Screening data (Relative infection to DMSO controls) Average 50 μM” value [1] was 85.64 and the “Average (relative infection to DMSO over the 5 tested concentrations)” value [1] was 108.25. The “Toxicity Data: Average, Mean” value ([2]; 1 uM) was 105.73%, the “Relative cell count to DMSO controls, Average 1 μM” value (“Relative cell count … Average 1 μM” below) [2] was 105.73 and the “Toxicity Data: Average, Mean” value ([2]; 5 uM) was 107.19%. For the same compound, the “Relative cell count to DMSO controls, Average 5 μM” value (from here on “Relative cell count … Average 5 μM”) [2] was 107.19, the “Toxicity Data: Average, Mean” value ([2]; 10 uM) was 105.25% and the “Relative cell count to DMSO controls, Average 10 μM” value (shortened to “Relative cell count … Average 10 μM”) [2] was 105.25. For the same compound, the “Toxicity Data: Average, Mean” value ([2]; 25 uM) was 104.32%, the “Relative cell count to DMSO controls, Average 25 μM” value (“Relative cell count … Average 25 μM” for short) [2] was 104.32 and the “Toxicity Data: Average, Mean” value ([2]; 50 uM) was 78.61%. For the same compound, the “Relative cell count to DMSO controls, Average 50 μM” value (“Relative cell count … Average 50 μM” below) [2] was 78.61 and the “Relative cell count to DMSO controls, Average (for correlation analysis)” value (shortened to “Relative cell count … (for correlation analysis)”) [2] was 100.22.
In the case of COc1ccc(C2NC(=O)NC(C)=C2C(=O)NC2CCCCCC2)cc1OC (stereo not shown) [SILCS59], the “Percentage Inhibition Average 1 μM” value [1] is reported as 29.42%, the “Screening data (Relative infection to DMSO controls) Average 1 μM” value [1] is reported as 70.58 and the “Percentage Inhibition Average 5 μM” value [1] is reported as 33.20%. For the same compound, the “Screening data (Relative infection to DMSO controls) Average 5 μM” value [1] was 66.80, the “Percentage Inhibition Average 10 μM” value [1] was 16.88% and the “Screening data (Relative infection to DMSO controls) Average 10 μM” value [1] was 83.12. The “Percentage Inhibition Average 25 μM” value [1] was −8.59%, the “Screening data (Relative infection to DMSO controls) Average 25 μM” value [1] was 108.59 and the “Percentage Inhibition Average 50 μM” value [1] was −28.37%. For the same compound, the “Screening data (Relative infection to DMSO controls) Average 50 μM” value [1] was 128.37, the “Average (relative infection to DMSO over the 5 tested concentrations)” value [1] was 91.49 and the “Relative cell count … Average 1 μM” value [2] was 115.37. For the same compound, the “Relative cell count … Average 5 μM” value [2] was 119.78, the “Relative cell count … Average 10 μM” value [2] was 116.3 and the “Relative cell count … Average 25 μM” value [2] was 100.03. For the same compound, the “Relative cell count … Average 50 μM” value [2] was 86.44 and the “Relative cell count … (for correlation analysis)” value [2] was 107.58.
In the case of Cc1cc(CN(CCN(C)C)Cc2ccsc2)oc1C [SILCS27], the “Infection Data, Average, Mean” value ([1]; Average of Exp 1-3, n 9, 1 uM) is reported as 101.69%, the “Infection Data, Average, Mean” value ([1]; Average of Exp 1-3, n 9, 5 uM) is reported as 91.50% and the “Infection Data, Average, Mean” value ([1]; Average of Exp 1-3, n 9, 10 uM) is reported as 93.59%. For the same compound, the “Infection Data, Average, Mean” value ([1]; Average of Exp 1-3, n 9, 25 uM) was 67.45%, the “Infection Data, Average, Mean” value ([1]; Average of Exp 1-3, n 9, 50 uM) was 20.11% and the “Percentage Infection Relative to Appropriate DMSO Control with Avg Background Subtraction” value ([1]; Exp 1 (SMW475), 1 uM) was 107.33% and 128.47% and 95.32%. The “Percentage Infection Relative to Appropriate DMSO Control with Avg Background Subtraction” value ([1]; Exp 1 (SMW475), 5 uM) was 113.52% and 118.94% and 106.69%, the “Percentage Infection Relative to Appropriate DMSO Control with Avg Background Subtraction” value ([1]; Exp 1 (SMW475), 10 uM) was 137.00% and 134.73% and 122.43% and the “Percentage Infection Relative to Appropriate DMSO Control with Avg Background Subtraction” value ([1]; Exp 1 (SMW475), 25 uM) was 63.59% and 56.84% and 58.04%. The “Percentage Infection Relative to Appropriate DMSO Control with Avg Background Subtraction” value ([1]; Exp 1 (SMW475), 50 uM) was 15.03% and 16.97% and 13.28%, the “Percentage Infection Relative to Appropriate DMSO Control with Avg Background Subtraction” value ([1]; Exp 2 (SMW477), 1 uM) was 100.41% and 105.41% and 110.54% and the “Percentage Infection Relative to Appropriate DMSO Control with Avg Background Subtraction” value ([1]; Exp 2 (SMW477), 5 uM) was 92.70% and 91.91% and 94.77%. For the same compound, the “Percentage Infection Relative to Appropriate DMSO Control with Avg Background Subtraction” value ([1]; Exp 2 (SMW477), 10 uM) was 76.80% and 77.09% and 89.00%, the “Percentage Infection Relative to Appropriate DMSO Control with Avg Background Subtraction” value ([1]; Exp 2 (SMW477), 25 uM) was 62.89% and 48.77% and 73.05% and the “Percentage Infection Relative to Appropriate DMSO Control with Avg Background Subtraction” value ([1]; Exp 2 (SMW477), 50 uM) was 26.32% and 19.89% and 21.80%. For the same compound, the “Percentage Infection Relative to Appropriate DMSO Control with Avg Background Subtraction” value ([1]; Exp 3 (SMW478), 1 uM) was 87.75% and 89.34% and 90.68%, the “Percentage Infection Relative to Appropriate DMSO Control with Avg Background Subtraction” value ([1]; Exp 3 (SMW478), 5 uM) was 79.11% and 61.06% and 64.83% and the “Percentage Infection Relative to Appropriate DMSO Control with Avg Background Subtraction” value ([1]; Exp 3 (SMW478), 10 uM) was 89.71% and 51.99% and 63.55%. The “Percentage Infection Relative to Appropriate DMSO Control with Avg Background Subtraction” value ([1]; Exp 3 (SMW478), 25 uM) was 80.23% and 76.86% and 86.74%, the “Percentage Infection Relative to Appropriate DMSO Control with Avg Background Subtraction” value ([1]; Exp 3 (SMW478), 50 uM) was 18.61% and 22.87% and 26.23% and the “Percentage Inhibition Average 1 μM” value [1] was −1.69%. For the same compound, the “Screening data (Relative infection to DMSO controls) Average 1 μM” value [1] was 101.69, the “Percentage Inhibition Average 5 μM” value [1] was 8.50% and the “Screening data (Relative infection to DMSO controls) Average 5 μM” value [1] was 91.50. The “Percentage Inhibition Average 10 μM” value [1] was 6.41%, the “Screening data (Relative infection to DMSO controls) Average 10 μM” value [1] was 93.59 and the “Percentage Inhibition Average 25 μM” value [1] was 32.55%. For the same compound, the “Screening data (Relative infection to DMSO controls) Average 25 μM” value [1] was 67.45, the “Percentage Inhibition Average 50 μM” value [1] was 79.89% and the “Screening data (Relative infection to DMSO controls) Average 50 μM” value [1] was 20.11. For the same compound, the “Average (relative infection to DMSO over the 5 tested concentrations)” value [1] was 74.87, the “Relative cell count … Average 1 μM” value [2] was 109.07 and the “Relative cell count … Average 5 μM” value [2] was 120.66. The “Relative cell count … Average 10 μM” value [2] was 120.18, the “Relative cell count … Average 25 μM” value [2] was 103.23 and the “Relative cell count … Average 50 μM” value [2] was 86.33. For the same compound, the “Toxicity Data, Average, Mean” value ([2]; Average of Exp 1-3, n 9, 1 uM) was 109.07%, the “Toxicity Data, Average, Mean” value ([2]; Average of Exp 1-3, n 9, 5 uM) was 120.66% and the “Toxicity Data, Average, Mean” value ([2]; Average of Exp 1-3, n 9, 10 uM) was 120.18%. The “Toxicity Data, Average, Mean” value ([2]; Average of Exp 1-3, n 9, 25 uM) was 103.23%, the “Toxicity Data, Average, Mean” value ([2]; Average of Exp 1-3, n 9, 50 uM) was 86.33% and the “Relative cell count … (for correlation analysis)” value [2] was 107.89.
